Reference: patent US7514254B2, “Plant-derived alkaline alpha-galactosidase” (The State of Israel, Ministry of Agriculture & Rural …, priority 1998, dated 2009)

Tests used:
[1] = system: melon (Cucumis melo) fruit acid form alpha-galactosidase; assay: Substrate kinetics (Lineweaver-Burk) of acid alpha-galactosidase; format: biochemical, muskmelon (Cucumis melo L. cv C-8)
Method: For routine analysis and monitoring the activity in the purification steps, alpha-galactosidase was assayed as described by Smart and Pharr (“Characterization of alpha-galactosidase from cucumber leaves”, Plant Physiology, 66:731-734, 1980), using p-nitrophenyl alpha-galactoside (pNPG) as substrate. […] The reaction was terminated after 10 min by adding 1 ml of 5% (w/v) Na2CO3 and activity expressed as nmol nitrophenol per min as measured at 410 nm. […] The assay was started by adding 50 μl enzyme preparation at 35 C and terminated after 10 to 20 min by 2 min boiling. […] For the partial purification of the acid form of alpha-galactosidase the fractions active at pH 5.5 were pooled and concentrated by reverse dialysis against solid sucrose. […] The active fractions were then desalted by dialysis against buffer A for 12 hours with two changes of the buffer. This enzyme fraction was used for the characterization of the acidic form of alpha-galactosidase. […] The substrate specificity of the alpha-galactosidases was tested with pNPG, stachyose, raffinose, melibiose or guar gum (Sigma).

[2] = target: T1, melon (Cucumis melo) fruit alkaline alpha-galactosidase Form I (Cucumis melo, UniProt Q84NI7); assay: Substrate kinetics (Lineweaver-Burk) of alkaline alpha-galactosidase Form I
T1 sequence (Q84NI7 1-754): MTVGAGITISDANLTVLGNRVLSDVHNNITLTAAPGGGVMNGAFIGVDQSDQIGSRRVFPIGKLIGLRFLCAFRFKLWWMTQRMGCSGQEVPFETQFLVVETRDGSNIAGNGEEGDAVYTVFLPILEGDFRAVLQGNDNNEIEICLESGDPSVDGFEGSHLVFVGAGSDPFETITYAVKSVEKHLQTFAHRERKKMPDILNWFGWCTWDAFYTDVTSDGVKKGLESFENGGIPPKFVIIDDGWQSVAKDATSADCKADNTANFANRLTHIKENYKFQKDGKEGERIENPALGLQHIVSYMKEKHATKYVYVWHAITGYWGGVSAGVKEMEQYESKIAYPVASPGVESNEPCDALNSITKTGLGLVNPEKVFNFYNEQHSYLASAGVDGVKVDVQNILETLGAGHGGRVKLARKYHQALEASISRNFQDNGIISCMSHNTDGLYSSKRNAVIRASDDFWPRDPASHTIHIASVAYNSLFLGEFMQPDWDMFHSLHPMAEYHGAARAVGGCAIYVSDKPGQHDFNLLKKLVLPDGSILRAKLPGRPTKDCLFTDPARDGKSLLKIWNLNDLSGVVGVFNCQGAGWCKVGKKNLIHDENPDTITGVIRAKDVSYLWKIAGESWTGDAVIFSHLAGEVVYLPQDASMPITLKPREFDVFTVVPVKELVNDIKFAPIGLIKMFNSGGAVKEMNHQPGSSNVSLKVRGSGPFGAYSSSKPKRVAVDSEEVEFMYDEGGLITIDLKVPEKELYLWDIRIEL
Method: For routine analysis and monitoring the activity in the purification steps, alpha-galactosidase was assayed as described by Smart and Pharr (“Characterization of alpha-galactosidase from cucumber leaves”, Plant Physiology, 66:731-734, 1980), using p-nitrophenyl alpha-galactoside (pNPG) as substrate. Reaction was initiated by adding 50 μl enzyme aliquot to either 200 μl 100 mM pH 5.5 McIlvaine buffer or 100 mM pH 7.5 HEPES buffer, containing 5 mM pNPG at 35 C. The reaction was terminated after 10 min by adding 1 ml of 5% (w/v) Na2CO3 and activity expressed as nmol nitrophenol per min as measured at 410 nm. […] The assay was started by adding 50 μl enzyme preparation at 35 C and terminated after 10 to 20 min by 2 min boiling.
The fractions from the DEAE-Sepharose chromatography which were active at pH 7.5 were pooled and dialyzed against buffer A for 12 h prior to loading onto an HPLC ion exchange chromatography column (Mono-Q HR 5/5, Pharmacia, Uppsala, Sweden), previously equilibrated with buffer A. Bound proteins were eluted with a linear gradient of 0.1 to 0.45 M NaCl and the active fractions were detected using pNPG as substrate at pH 7.5 as described above. […] For the further purification of Form II the active fractions of the peak II were chromatographed on hydrophobic interaction chromatography. The fractions were pooled, brought to 1 M (NH4)2SO4 and loaded on to a hydrophobic interaction column (phenyl-Sepharose CL-4B, 0.5×12 cm, Pharmacia, Uppsala, Sweden) previously equilibrated with buffer A containing 1 M (NH4)2SO4. The protein was eluted with a reverse stepwise gradient from 1 to 0 M (NH4)2SO4 with 50 mM intervals in buffer A. Fractions containing the activity peak were collected and dialyzed for 12 h against buffer A and the dialysate was concentrated by reverse dialysis against solid sucrose. The enzyme, partially purified by hydrophobic interaction chromatography, was used for the characterization of Form II. The active fractions from the hydrophobic interaction column were further purified. Active fractions were separated electrophoretically using a Mini Prep Cell (Bio-Rad Laboratories, Hercules, Calif.) for discontinuous native-PAGE with 7% polyacrylamide, according to manufacturer's instructions. Fractions (0.25 ml/fraction) were assayed at pH 7.5 with pNPG as substrate for the activity. The active fractions were pooled, concentrated by Vivaspin Concentrator (Vivascience LTD, Lincoln, England), and run in a 8% SDS-PAGE. Proteins in the SDS-PAGE were identified using Coomassie Blue staining.
Therefore, the active fractions from the Mono-Q column were used for the characterization of Form I. In addition, the Form I enzyme was further purified, as described in the following section.

[3] = system: melon (Cucumis melo) fruit acid form alpha-galactosidase; assay: Inhibition of acid alpha-galactosidase by alternative substrate (galactose release); format: biochemical, muskmelon (Cucumis melo L. cv C-8); conditions: 80 mM stachyose added to 10 mM raffinose
Method: For routine analysis and monitoring the activity in the purification steps, alpha-galactosidase was assayed as described by Smart and Pharr (“Characterization of alpha-galactosidase from cucumber leaves”, Plant Physiology, 66:731-734, 1980), using p-nitrophenyl alpha-galactoside (pNPG) as substrate. […] The reaction was terminated after 10 min by adding 1 ml of 5% (w/v) Na2CO3 and activity expressed as nmol nitrophenol per min as measured at 410 nm. […] The substrate specificity of the alpha-galactosidases was tested with pNPG, stachyose, raffinose, melibiose or guar gum (Sigma).

Vmax/Km ratio [1]: 0.02 | Km ([1]; Lineweaver-Burk): 10.5 mM | Vmax ([1]; Lineweaver-Burk): 0.23 μmol mg^−1 protein min^−1 | Vmax/Km ratio [2]: 0.06 | Vmax ([2]; Lineweaver-Burk): 0.24 μmol mg^−1 protein min^−1 | inhibition by excess stachyose (free galactose release) [3]: 45%
Compound: OC[C@H]1O[C@H](OC[C@H]2O[C@H](OC[C@H]3O[C@H](O[C@]4(CO)O[C@H](CO)[C@@H](O)[C@@H]4O)[C@H](O)[C@@H](O)[C@@H]3O)[C@H](O)[C@@H](O)[C@H]2O)[C@H](O)[C@@H](O)[C@H]1O [Stachyose, O-alpha-D-galactopyranosyl-(1-6)-O-alpha-D-galactopyranosyl-(1-6)-O-alpha-D-glucopyranosyl-(1-2)-beta-D-fructofuranoside]
